Data set [1] is described as follows: Emesis evaluation in beagle dogs, IV infusion. The data set is classed as in vivo. The settings on record: 8-12 kg beagle dogs, loading dose followed by slow infusion. As for the experimental part: The occurrence of these gastrointestinal symptoms after administration of these compounds limited their clinical utility. Experiments are undertaken to differentiate local gastrointestinal emetic stimuli during dissolution and absorption of an oral compound from emetic stimuli produced during systemic exposure through the bloodstream. […] These findings are observed after 8-12 kg purpose-bred beagle dogs are administered 4-(3-{[4-(1-methyl-1H-pyrazol-5-yl)phenyl]thio}phenyl)tetrahydro-2H-pyran-4-carboxamide by IV infusion, using a loading dose followed by a slow infusion to attain a peak blood level over 30 minutes to 1 hour in duration. More specifically, compounds are diluted in phosphate buffered saline to a concentration where 10 ml/kg total volume was administered through an intravenous catheter using an infusion pump, with approximately 90% of the total dose being delivered in the first 5 minutes, and the remaining dose administered over the next 25 minutes. Similar delivery methods to produce an exposure that approximates the systemic pharmacokinetic profile seen with oral delivery are anticipated to give similar results. […] For compounds of the invention, emesis, can for example be evaluated by administering the named compound orally at doses of 10 mg per kg, 100 mg per kg fasted, and 100 mg per kg fed, and evaluating emesis in dogs. […]

Data set [2] relates to eicosanoid production in the rat air pouch. As to the kind of experiment: Carrageenan-induced eicosanoid production in the rat air pouch. It is filed as in vivo. The settings on record: po, male Lewis rats, 3 mpk by gavage 1 hour prior to carrageenan. As for the experimental part: Carrageenan-Induced Eicosanoid Production in the Rat Air Pouch:
Male Lewis rats (175-200 g), Charles River Laboratories, Wilmington, Mass.) were used in the study. Air pouches were produced by subcutaneous injection of 20 ml of sterile air into the intrascapular area of the back. Pouches were allowed to develop for 1 day. Animals (6 per group) were fasted with free access to water for 16 to 24 hours prior to drug administration. Drugs or vehicle were administered by gavage 1 hour prior to injection of 2 ml of a 1% suspension of carrageenan (FMC BioPolymer, Philadelphia, Pa., Cat. # GP209-NF) dissolved in saline into the pouch. At 3 hours post-carrageenan injection, 1 ml of 50 μg/ml calcium ionophore in saline (A23187, Sigma Chemical Co, St. Louis, M, Cat. #C-7522) was injected into the pouch and the pouch fluid collected 10 minutes later by lavage. The fluid was centrifuged at 3500 rpm for 10 minutes at 4° C., and the supernatants were collected for analysis. Leukotriene and prostaglandin levels were quantitated by ELISA according to the manufacturer's directions (Cayman Chemical Company, Ann Arbor, Mi).

A further data set concerns the target T1, recombinant human 5-LOX (Homo sapiens, UniProt P09917).
T1 sequence (P09917 1-674): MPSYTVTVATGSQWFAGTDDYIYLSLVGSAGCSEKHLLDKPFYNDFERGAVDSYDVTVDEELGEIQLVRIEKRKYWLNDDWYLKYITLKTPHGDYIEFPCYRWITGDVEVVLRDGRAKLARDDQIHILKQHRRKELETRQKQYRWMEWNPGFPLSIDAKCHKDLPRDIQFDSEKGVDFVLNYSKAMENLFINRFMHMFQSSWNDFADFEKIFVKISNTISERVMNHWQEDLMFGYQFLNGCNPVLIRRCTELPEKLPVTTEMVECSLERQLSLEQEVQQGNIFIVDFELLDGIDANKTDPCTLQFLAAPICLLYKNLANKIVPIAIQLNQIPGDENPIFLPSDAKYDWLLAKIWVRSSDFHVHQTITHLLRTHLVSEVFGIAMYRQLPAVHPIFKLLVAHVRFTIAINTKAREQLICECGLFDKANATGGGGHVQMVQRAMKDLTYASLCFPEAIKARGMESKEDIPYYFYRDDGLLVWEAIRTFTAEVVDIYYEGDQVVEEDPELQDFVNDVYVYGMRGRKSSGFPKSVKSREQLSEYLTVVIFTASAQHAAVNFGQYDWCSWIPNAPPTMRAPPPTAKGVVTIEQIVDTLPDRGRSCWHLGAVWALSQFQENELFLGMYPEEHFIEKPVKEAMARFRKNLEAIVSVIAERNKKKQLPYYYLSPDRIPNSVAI
As to the kind of experiment: Fluorescence Intensity 5-LOX Enzyme Assay. The data set is classed as biochemical. The settings on record: crude lysate of recombinant human 5-LOX; highest inhibitor concentration tested typically 25 μM. An outline of the steps:
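Crude lysate enzyme with H2DCFDA 10 μM (5 min dye pre-incubation), inhibitor pre-incubated 10 min; reaction started with 3 μM arachidonic acid plus 10 μM ATP in Tris pH 7.5, CaCl2, EDTA, 20 min at room temperature, acetonitrile stop. Fluorescein fluorescence; 7-point 4-parameter IC50, top 25 μM, 2.5% DMSO.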

Data set [3] deals with human whole blood (leukotriene and prostaglandin levels). As to the kind of experiment: Eicosanoid production from human whole blood. The data set is classed as cell-based. Conditions: human whole blood stimulated with calcium ionophore A23187 and arachidonic acid; ELISA. In a few lines: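 Pooled heparinized whole blood from healthy or asthmatic donors was preincubated with compound for 10 min at room temperature, with 2.5% DMSO final. It was stimulated with calcium ionophore A23187 plus arachidonic acid (30 μM) in 60% ethanol for 15 min at 37 °C. Plasma leukotrienes and prostaglandins were measured by ELISA.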

As to `Cn1nccc1-c1ccc(Sc2cccc(C3(C(N)=O)CCOCC3)c2)cc1` [4-(3-{[4-(1-methyl-1H-pyrazol-5-yl)phenyl]thio}phenyl)tetrahydro-2H-pyran-4-carboxamide], the nausea and emesis result in data set [1] is “produce nausea and emesis through systemic exposure”.

`Cn1ncc(Cl)c1-c1ccc(Sc2cccc(C3(C(N)=O)CCOCC3)c2)cc1` [Example 57, 4-(3-{[4-(4-chloro-1-methyl-1H-pyrazol-5-yl)phenyl]thio}phenyl)tetrahydro-2H-pyran-4-carboxamide] registered an inhibition at 3 mg/kg in data set [2] of 62%. The IC50 at recombinant human 5-LOX was 85.1 nM; in data set [3], 514 nM.

On to `Cn1nccc1C(=O)c1ccc(Sc2cccc(C3(C(N)=O)CCOCC3)c2)cc1F` [Example 58, 4-[3-({3-fluoro-4-[(1-methyl-1H-pyrazol-5-yl)carbonyl]phenyl}thio)phenyl]tetrahydro-2H-pyran-4-carboxamide], for which testing at 3 mg/kg in data set [2] gave an inhibition of 0%. The results for the IC50 (at recombinant human 5-LOX; in data set [3]) were 156 nM and 1140 nM, respectively.

The values are drawn from US8097733B2, “Pyrazole derivatives as 5-LO-inhibitors” (Pfizer Inc., priority 2007, dated 2012).
